Measured values reported in patent publication US20250290057A1, “LYTIC AGENT FOR ENTEROCOCCUS FAECALIS” (priority 2022, published 2025).
In brackets after ≈: the same amount, converted by molar mass.

Key:
E. faecalis isolates = experiment: Minimal inhibitory concentration of antibacterial agents, "Eiken" DP42 dry plate; assay type: cell-based, Enterococcus faecalis; conditions: for MIC: Enterococcus faecalis, read-out: Minimal inhibitory concentration; for Sensitivity of strains to antibacterial agent: all E. faecalis strains (11 strains)
Procedure: (§1) The sensitivity to an antibacterial agent for each of the above-described 30 Enterococcus bacterial strains was invenstigated. Specifically, the bacterial strains prepared in 1 McFarland standard with physiological saline were diluted 500-fold with a BHI culture medium, and then aerobically cultured in solid-phase wells of an “Eiken” DP42 dry plate (Eiken Chemical Co., Ltd., Tokyo, Japan) for 24 hours.
(§2) The minimal inhibitory concentration of any one of the antibacterial agents, i.e., daptomycin (DAP), vancomycin (VCM), teicoplanin (TEIC), and linezolid (LZD), was determined in accordance with the instruction of the product. […] The results obtained by testing resistance to the antibacterial agents of the E. faecalis strains (11 strains) are shown in Table 1 below.

E. faecium isolates = experiment: as above; assay type: cell-based, Enterococcus faecium; conditions: all E. faecium (19 strains)
Procedure: as §1, §2

[1] = E. faecalis strain OCU009_35_10
[2] = E. faecalis strain OCU031_pre_6
[3] = E. faecalis strain OCU031_pre_7
[4] = E. faecalis strain OCU031_pre_10

Compound: CCCCCCCCCC(=O)N[C@@H](Cc1c[nH]c2ccccc12)C(=O)N[C@H](CC(N)=O)C(=O)N[C@@H](CC(=O)O)C(=O)N[C@@H]1C(=O)NCC(=O)N[C@@H](CCCN)C(=O)N[C@@H](CC(=O)O)C(=O)N[C@H](C)C(=O)N[C@@H](CC(=O)O)C(=O)NCC(=O)N[C@H](CO)C(=O)N[C@@H]([C@H](C)CC(=O)O)C(=O)N[C@@H](CC(=O)c2ccccc2N)C(=O)O[C@@H]1C [daptomycin]
- Minimal inhibitory concentration (E. faecalis isolates; E. faecalis strain OCU009_35_4): >4 µg/mL
- Minimal inhibitory concentration (E. faecalis isolates; [1]): >4 µg/mL
- Minimal inhibitory concentration (E. faecalis isolates; E. faecalis strain OCU015_56_6): >4 µg/mL
- Minimal inhibitory concentration (E. faecalis isolates; E. faecalis strain OCU031_7_1): >4 µg/mL
- Minimal inhibitory concentration (E. faecalis isolates; E. faecalis strain OCU031_7_9): >4 µg/mL
- Minimal inhibitory concentration (E. faecalis isolates; E. faecalis strain OCU031_14_5): >4 µg/mL
- Minimal inhibitory concentration (E. faecalis isolates; E. faecalis strain OCU031_14_8): >4 µg/mL
- Minimal inhibitory concentration (E. faecalis isolates; [2]): >4 µg/mL
- Minimal inhibitory concentration (E. faecalis isolates; [3]): >4 µg/mL
- Minimal inhibitory concentration (E. faecalis isolates; [4]): >4 µg/mL
- MIC (E. faecalis isolates; E. faecalis strain OCU015_56_7): > 4 µg/mL
- Sensitivity of strains to antibacterial agent (E. faecalis isolates): exhibited sensitivity
- Sensitivity of strains to antibacterial agent (E. faecium isolates): exhibited sensitivity

Compound: CC(=O)NC[C@H]1CN(c2ccc(N3CCOCC3)c(F)c2)C(=O)O1 [linezolid]
- Minimal inhibitory concentration (E. faecalis isolates; E. faecalis strain OCU009_35_4): 2 µg/mL (≈ 5.93 µM)
- Minimal inhibitory concentration (E. faecalis isolates; [1]): 2 µg/mL (≈ 5.93 µM)
- Minimal inhibitory concentration (E. faecalis isolates; E. faecalis strain OCU015_56_6): 2 µg/mL (≈ 5.93 µM)
- Minimal inhibitory concentration (E. faecalis isolates; E. faecalis strain OCU031_7_1): 2 µg/mL (≈ 5.93 µM)
- Minimal inhibitory concentration (E. faecalis isolates; E. faecalis strain OCU031_7_9): 2 µg/mL (≈ 5.93 µM)
- Minimal inhibitory concentration (E. faecalis isolates; E. faecalis strain OCU031_14_5): 2 µg/mL (≈ 5.93 µM)
- Minimal inhibitory concentration (E. faecalis isolates; E. faecalis strain OCU031_14_8): 2 µg/mL (≈ 5.93 µM)
- Minimal inhibitory concentration (E. faecalis isolates; [2]): 2 µg/mL (≈ 5.93 µM)
- Minimal inhibitory concentration (E. faecalis isolates; [3]): 2 µg/mL (≈ 5.93 µM)
- Minimal inhibitory concentration (E. faecalis isolates; [4]): 2 µg/mL (≈ 5.93 µM)
- MIC (E. faecalis isolates; E. faecalis strain OCU015_56_7): 2 µg/mL (≈ 5.93 µM)
- Sensitivity of strains to antibacterial agent (E. faecalis isolates): exhibited sensitivity
- Sensitivity of strains to antibacterial agent (E. faecium isolates): exhibited sensitivity

Compound: teicoplanin
- Minimal inhibitory concentration (E. faecalis isolates; E. faecalis strain OCU009_35_4): 1 µg/mL
- Minimal inhibitory concentration (E. faecalis isolates; [1]): 2 µg/mL
- Minimal inhibitory concentration (E. faecalis isolates; E. faecalis strain OCU015_56_6): 0.5 µg/mL
- Minimal inhibitory concentration (E. faecalis isolates; E. faecalis strain OCU015_56_7): 0.5 µg/mL
- Minimal inhibitory concentration (E. faecalis isolates; E. faecalis strain OCU031_7_1): 2 µg/mL
- Minimal inhibitory concentration (E. faecalis isolates; E. faecalis strain OCU031_7_9): 2 µg/mL
- Minimal inhibitory concentration (E. faecalis isolates; E. faecalis strain OCU031_14_5): 1 µg/mL
- Minimal inhibitory concentration (E. faecalis isolates; E. faecalis strain OCU031_14_8): 1 µg/mL
- Minimal inhibitory concentration (E. faecalis isolates; [2]): 1 µg/mL
- Minimal inhibitory concentration (E. faecalis isolates; [3]): 1 µg/mL
- Minimal inhibitory concentration (E. faecalis isolates; [4]): 1 µg/mL
- Sensitivity of strains to antibacterial agent (E. faecalis isolates): exhibited sensitivity
- Sensitivity of strains to antibacterial agent (E. faecium isolates): exhibited sensitivity
